Assays:
Decitabine = compound: Nc1ncn([C@H]2C[C@H](O)[C@@H](CO)O2)c(=O)n1 [Decitabine]; assay: relative viability (nuclei count vs DMSO), 5 days (fraction); higher = more cells survive
How it was run: (§1)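 Only plates meeting two conditions passed: control CV below 25% and at least one doubling. Lung cancer cell lines, kept overnight at 37 °C in 1536-well plates, were pinned with five library-drug doses (not always all listed) √10 apart on vehicle-anchored plates and grown 5 days without medium change. A one-step fix, permeabilisation and Hoechst stain preceded 4× imaging and MetaXpress nuclear counting. Viability equals treated-well nuclei divided by vehicle-well nuclei, as the median over plates.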

Cediranib = compound: COc1cc2c(Oc3ccc4[nH]c(C)cc4c3F)ncnc2cc1OCCCN1CCCC1 [Cediranib]; assay: as above
How it was run: as §1

PC-3 [JPC-3]
relative viability (Decitabine; 0.1265 µM): 0.85
relative viability (Decitabine; 0.4 µM): 0.537
relative viability (Decitabine; 1.265 µM): 0.611
relative viability (Decitabine; 2 µM, anchor plate): 0.847
relative viability (Decitabine; 4 µM): 0.627
relative viability (Cediranib; 0.04 µM): 0.921
relative viability (Cediranib; 0.1265 µM): 0.959
relative viability (Cediranib; 0.4 µM): 0.933
relative viability (Cediranib; 1.265 µM): 1.09
relative viability (Cediranib; 4 µM): 0.973

NCI-H1993
relative viability (Decitabine; 0.04 µM): 0.863
relative viability (Decitabine; 0.1265 µM): 0.844
relative viability (Decitabine; 0.4 µM): 0.929
relative viability (Decitabine; 1.265 µM): 0.755
relative viability (Decitabine; 2 µM, anchor plate): 0.596
relative viability (Decitabine; 4 µM): 0.757
relative viability (Cediranib; 0.04 µM): 0.73
relative viability (Cediranib; 0.1265 µM): 0.878
relative viability (Cediranib; 0.4 µM): 0.857
relative viability (Cediranib; 1.265 µM): 0.726
relative viability (Cediranib; 4 µM): 0.87

LOU-NH91
relative viability (Decitabine; 0.04 µM): 0.781
relative viability (Decitabine; 0.1265 µM): 0.928
relative viability (Decitabine; 0.4 µM): 0.886
relative viability (Decitabine; 1.265 µM): 0.83
relative viability (Decitabine; 2 µM, anchor plate): 0.808
relative viability (Decitabine; 4 µM): 0.848
relative viability (Cediranib; 0.04 µM): 0.967
relative viability (Cediranib; 0.1265 µM): 1.15
relative viability (Cediranib; 0.4 µM): 0.932
relative viability (Cediranib; 1.265 µM): 0.878
relative viability (Cediranib; 4 µM): 0.958

SW 900
relative viability (Decitabine; 0.04 µM): 0.465
relative viability (Decitabine; 0.1265 µM): 0.477
relative viability (Decitabine; 0.4 µM): 0.298
relative viability (Decitabine; 1.265 µM): 0.25
relative viability (Decitabine; 2 µM, anchor plate): 0.433
relative viability (Decitabine; 4 µM): 0.265
relative viability (Cediranib; 0.04 µM): 0.811
relative viability (Cediranib; 0.1265 µM): 0.774
relative viability (Cediranib; 0.4 µM): 0.737
relative viability (Cediranib; 1.265 µM): 0.835
relative viability (Cediranib; 4 µM): 0.952

LCLC-103H
relative viability (Decitabine; 0.04 µM): 1.07
relative viability (Decitabine; 0.1265 µM): 1.05
relative viability (Decitabine; 0.4 µM): 0.917
relative viability (Decitabine; 1.265 µM): 0.85
relative viability (Decitabine; 2 µM, anchor plate): 0.736
relative viability (Decitabine; 4 µM): 0.805
relative viability (Cediranib; 0.04 µM): 1.07
relative viability (Cediranib; 0.1265 µM): 1.03
relative viability (Cediranib; 0.4 µM): 0.952
relative viability (Cediranib; 1.265 µM): 1.06
relative viability (Cediranib; 4 µM): 1.06

NCI-H1915
relative viability (Decitabine; 0.04 µM): 0.502
relative viability (Decitabine; 0.1265 µM): 0.421
relative viability (Decitabine; 0.4 µM): 0.329
relative viability (Decitabine; 1.265 µM): 0.26
relative viability (Decitabine; 2 µM, anchor plate): 0.265
relative viability (Decitabine; 4 µM): 0.292
relative viability (Cediranib; 0.04 µM): 0.969
relative viability (Cediranib; 0.1265 µM): 0.832
relative viability (Cediranib; 0.4 µM): 0.96
relative viability (Cediranib; 1.265 µM): 1.04
relative viability (Cediranib; 4 µM): 0.996

IA-LM
relative viability (Decitabine; 0.04 µM): 0.509
relative viability (Decitabine; 0.1265 µM): 0.431
relative viability (Decitabine; 0.4 µM): 0.272
relative viability (Decitabine; 1.265 µM): 0.192
relative viability (Decitabine; 4 µM): 0.158
relative viability (Cediranib; 0.04 µM): 0.951
relative viability (Cediranib; 0.1265 µM): 0.948
relative viability (Cediranib; 0.4 µM): 0.877
relative viability (Cediranib; 1.265 µM): 0.888
relative viability (Cediranib; 4 µM): 1.08

NCI-H1734
relative viability (Decitabine; 0.04 µM): 0.804
relative viability (Decitabine; 0.1265 µM): 0.829
relative viability (Decitabine; 0.4 µM): 0.69
relative viability (Decitabine; 1.265 µM): 0.498
relative viability (Decitabine; 2 µM, anchor plate): 0.517
relative viability (Decitabine; 4 µM): 0.363
relative viability (Cediranib; 0.04 µM): 0.897
relative viability (Cediranib; 0.1265 µM): 0.951
relative viability (Cediranib; 0.4 µM): 0.96
relative viability (Cediranib; 1.265 µM): 0.821
relative viability (Cediranib; 4 µM): 1.09

SK-MES-1
relative viability (Decitabine; 0.04 µM): 0.827
relative viability (Decitabine; 0.1265 µM): 0.707
relative viability (Decitabine; 0.4 µM): 0.461
relative viability (Decitabine; 1.265 µM): 0.339
relative viability (Decitabine; 2 µM, anchor plate): 0.378
relative viability (Decitabine; 4 µM): 0.305
relative viability (Cediranib; 0.04 µM): 1.06
relative viability (Cediranib; 0.1265 µM): 1.12
relative viability (Cediranib; 0.4 µM): 0.961
relative viability (Cediranib; 1.265 µM): 0.967
relative viability (Cediranib; 4 µM): 1.09

Calu-6
relative viability (Decitabine; 0.04 µM): 0.785
relative viability (Decitabine; 0.1265 µM): 0.644
relative viability (Decitabine; 0.4 µM): 0.383
relative viability (Decitabine; 1.265 µM): 0.301
relative viability (Decitabine; 4 µM): 0.272
relative viability (Cediranib; 0.04 µM): 0.982
relative viability (Cediranib; 0.1265 µM): 1.03
relative viability (Cediranib; 0.4 µM): 0.977
relative viability (Cediranib; 1.265 µM): 1.04
relative viability (Cediranib; 4 µM): 1.03

HCC-15
relative viability (Decitabine; 0.04 µM): 0.915
relative viability (Decitabine; 0.1265 µM): 0.917
relative viability (Decitabine; 0.4 µM): 0.419
relative viability (Decitabine; 1.265 µM): 0.483
relative viability (Decitabine; 2 µM, anchor plate): 0.661
relative viability (Decitabine; 4 µM): 0.508
relative viability (Cediranib; 0.04 µM): 1.03
relative viability (Cediranib; 0.4 µM): 0.948
relative viability (Cediranib; 1.265 µM): 1.08
relative viability (Cediranib; 4 µM): 1

SK-LU-1
relative viability (Decitabine; 0.04 µM): 0.788
relative viability (Decitabine; 0.1265 µM): 0.703
relative viability (Decitabine; 0.4 µM): 0.46
relative viability (Decitabine; 1.265 µM): 0.482
relative viability (Decitabine; 2 µM, anchor plate): 0.631
relative viability (Decitabine; 4 µM): 0.411
relative viability (Cediranib; 0.04 µM): 1.12
relative viability (Cediranib; 0.1265 µM): 1.02
relative viability (Cediranib; 0.4 µM): 0.957
relative viability (Cediranib; 1.265 µM): 0.924
relative viability (Cediranib; 4 µM): 1.11

NCI-H2023
relative viability (Decitabine; 0.04 µM): 0.678
relative viability (Decitabine; 0.1265 µM): 0.516
relative viability (Decitabine; 0.4 µM): 0.249
relative viability (Decitabine; 1.265 µM): 0.206
relative viability (Decitabine; 2 µM, anchor plate): 0.227
relative viability (Decitabine; 4 µM): 0.172
relative viability (Cediranib; 0.04 µM): 1
relative viability (Cediranib; 0.1265 µM): 1.02
relative viability (Cediranib; 0.4 µM): 0.902
relative viability (Cediranib; 1.265 µM): 0.878
relative viability (Cediranib; 4 µM): 1.19

HCC-366
relative viability (Decitabine; 0.04 µM): 1.03
relative viability (Decitabine; 0.1265 µM): 0.977
relative viability (Decitabine; 0.4 µM): 0.546
relative viability (Decitabine; 1.265 µM): 0.241
relative viability (Decitabine; 2 µM, anchor plate): 0.344
relative viability (Decitabine; 4 µM): 0.155
relative viability (Cediranib; 0.04 µM): 1.1
relative viability (Cediranib; 0.1265 µM): 1.02
relative viability (Cediranib; 0.4 µM): 0.993
relative viability (Cediranib; 1.265 µM): 1.02
relative viability (Cediranib; 4 µM): 1

NCI-H1355
relative viability (Decitabine; 0.04 µM): 0.768
relative viability (Decitabine; 0.1265 µM): 0.643
relative viability (Decitabine; 0.4 µM): 0.42
relative viability (Decitabine; 1.265 µM): 0.338
relative viability (Decitabine; 2 µM, anchor plate): 0.362
relative viability (Decitabine; 4 µM): 0.278
relative viability (Cediranib; 0.04 µM): 0.944
relative viability (Cediranib; 0.1265 µM): 1.04
relative viability (Cediranib; 0.4 µM): 0.898
relative viability (Cediranib; 1.265 µM): 0.944
relative viability (Cediranib; 4 µM): 1.06

NCI-H1650
relative viability (Decitabine; 0.04 µM): 0.599
relative viability (Decitabine; 0.1265 µM): 0.657
relative viability (Decitabine; 0.4 µM): 0.507
relative viability (Decitabine; 1.265 µM): 0.346
relative viability (Decitabine; 2 µM, anchor plate): 0.422
relative viability (Decitabine; 4 µM): 0.338
relative viability (Cediranib; 0.04 µM): 1
relative viability (Cediranib; 0.1265 µM): 0.962
relative viability (Cediranib; 0.4 µM): 0.833
relative viability (Cediranib; 1.265 µM): 0.8
relative viability (Cediranib; 4 µM): 0.822
